# Reference: patent publication US9670210B2, “Cyclopropylamines as LSD1 inhibitors” (Incyte Corporation, priority 2014, dated 2017)
# Molecular target: T1, LSD-1 enzyme (Homo sapiens (Human), UniProt O60341)
# Test: not given
row,SMILES,IC50 [nM]
1,"O=C(O)C1(CN2CCC(CN[C@@H]3C[C@H]3c3ccccc3)(COC3CCCCC3)CC2)CCC1 [Example 95, 1-{[4-[(cyclohexyloxy)methyl]-4-({[(1R,2S)-2-phenylcyclopropyl]amino}methyl)piperidin-1-yl]methyl}cyclobutanecarboxylic acid]",< 100
2,"O=C(O)C1(CN2CCC(CN[C@@H]3C[C@H]3c3ccccc3)(Cc3ccc(F)cn3)CC2)CC1 [Example 96, 1-{[4-[(5-fluoropyridin-2-yl)methyl]-4-({[(1R,2S)-2-phenylcyclopropyl]amino}methyl)piperidin-1-yl]methyl}cyclopropanecarboxylic acid]",< 100
3,"O=C(O)C1(CN2CCC(CN[C@@H]3C[C@H]3c3ccccc3)(Cc3ccc(F)cn3)CC2)CCC1 [Example 97, 1-{[4-[(5-fluoropyridin-2-yl)methyl]-4-({[(1R,2S)-2-phenylcyclopropyl]amino}methyl)piperidin-1-yl]methyl}cyclobutanecarboxylic acid]",< 100
4,"COc1ccc(CC2(CN[C@@H]3C[C@H]3c3ccccc3)CCN(CC3(C(=O)O)CC3)CC2)cc1 [Example 98, 1-{[4-(4-methoxybenzyl)-4-({[(1R,2S)-2-phenylcyclopropyl]amino}methyl)piperidin-1-yl]methyl}cyclopropanecarboxylic acid]",< 100
5,"COc1ccc(CC2(CN[C@@H]3C[C@H]3c3ccccc3)CCN(CC3(C(=O)O)CCC3)CC2)cc1 [Example 99, 1-{[4-(4-methoxybenzyl)-4-({[(1R,2S)-2-phenylcyclopropyl]amino}methyl)piperidin-1-yl]methyl}cyclobutanecarboxylic acid]",< 100
6,"COCC1(CN[C@@H]2C[C@H]2c2ccccc2)CCN(C(=O)[C@H]2CC[C@H](CO)CC2)CC1 [Example 100, (trans-4-{[4-(methoxymethyl)-4-({[(1R,2S)-2-phenylcyclopropyl]amino}methyl)piperidin-1-yl]carbonyl}cyclohexyl)methanol]",< 100
7,"COCC1(CN[C@@H]2C[C@H]2c2ccccc2)CCN(C(=O)[C@H]2CC[C@@H](CO)CC2)CC1 [Example 101, (cis-4-{[4-(methoxymethyl)-4-({[(1R,2S)-2-phenylcyclopropyl]amino}methyl)piperidin-1-yl]carbonyl}cyclohexyl)methanol]",< 100
8,"COCC1(CN[C@@H]2C[C@H]2c2ccccc2)CCN(C(=O)C2(C#N)CC2)CC1 [Example 102, 1-{[4-(methoxymethyl)-4-({[(1R,2S)-2-phenylcyclopropyl]amino}methyl)piperidin-1-yl]carbonyl}cyclopropanecarbonitrile]",< 100
9,"COCC1(CN[C@@H]2C[C@H]2c2ccccc2)CCN(C(=O)c2cnn(CCO)c2)CC1 [Example 103, 2-(4-{[4-(methoxymethyl)-4-({[(1R,2S)-2-phenylcyclopropyl]amino}methyl)piperidin-1-yl]carbonyl}-1H-pyrazol-1-yl)ethanol]",< 100
10,"COCCn1cc(C(=O)N2CCC(CN[C@@H]3C[C@H]3c3ccccc3)(COC)CC2)cn1 [Example 104, (1R,2S)—N-{[1-{[1-(2-methoxyethyl)-1H-pyrazol-4-yl]carbonyl}-4-(methoxymethyl)piperidin-4-yl]methyl}-2-phenylcyclopropanamine]",< 100
11,"COCC1(CN[C@@H]2C[C@H]2c2ccccc2)CCN(C(=O)c2cnn(C)c2)CC1 [Example 105, (1R,2S)—N-({4-(methoxymethyl)-1-[(1-methyl-1H-pyrazol-4-yl)carbonyl]piperidin-4-yl}methyl)-2-phenylcyclopropanamine]",< 100
12,"COCC1(CN[C@@H]2C[C@H]2c2ccccc2)CCN(C(=O)c2cnn(CCC#N)c2)CC1 [Example 106, 3-(4-{[4-(methoxymethyl)-4-({[(1R,2S)-2-phenylcyclopropyl]amino}methyl)piperidin-1-yl]carbonyl}-1H-pyrazol-1-yl)propanenitrile]",< 100
13,"COCC1(CN[C@@H]2C[C@H]2c2ccccc2)CCN(C(=O)c2ccn(CCC#N)n2)CC1 [Example 107, 3-(3-{[4-(methoxymethyl)-4-({[(1R,2S)-2-phenylcyclopropyl]amino}methyl)piperidin-1-yl]carbonyl}-1H-pyrazol-1-yl)propanenitrile]",< 100
14,"COCC1(CN[C@@H]2C[C@H]2c2ccccc2)CCN(C(=O)c2ccn(CCO)n2)CC1 [Example 108, 2-(3-{[4-(methoxymethyl)-4-({[(1R,2S)-2-phenylcyclopropyl]amino}methyl)piperidin-1-yl]carbonyl}-1H-pyrazol-1-yl)ethanol]",< 100
15,"COCC1(CN[C@@H]2C[C@H]2c2ccccc2)CCN(C(=O)N2CCC[C@@H](O)C2)CC1 [Example 109, (3R)-1-{[4-(methoxymethyl)-4-({[(1R,2S)-2-phenylcyclopropyl]amino}methyl)piperidin-1-yl]carbonyl}piperidin-3-ol]",< 100
16,"COCC1(CN[C@@H]2C[C@H]2c2ccccc2)CCN(C(=O)N2CCC[C@H](O)C2)CC1 [Example 110, (3S)-1-{[4-(methoxymethyl)-4-({[(1R,2S)-2-phenylcyclopropyl]amino}methyl)piperidin-1-yl]carbonyl}piperidin-3-ol]",< 100
17,"COCC1(CN[C@@H]2C[C@H]2c2ccccc2)CCN(C(=O)N2CCC(O)CC2)CC1 [Example 112, 1-{[4-(methoxymethyl)-4-({[(1R,2S)-2-phenylcyclopropyl]amino}methyl)piperidin-1-yl]carbonyl}piperidin-4-ol]",< 100
18,"COCC1(CN[C@@H]2C[C@H]2c2ccccc2)CCN(C(=O)N2CCC(OC)CC2)CC1 [Example 113, (1R,2S)—N-({4-(methoxymethyl)-1-[(4-methoxypiperidin-1-yl)carbonyl]piperidin-4-yl}methyl)-2-phenylcyclopropanamine]",< 100
19,"COCC1(CN[C@@H]2C[C@H]2c2ccccc2)CCN(S(=O)(=O)c2cnn(C)c2)CC1 [Example 114, (1R,2S)—N-({4-(methoxymethyl)-1-[(1-methyl-1H-pyrazol-4-yl)sulfonyl]piperidin-4-yl}methyl)-2-phenylcyclopropanamine]",< 100
20,"COCC1(CN[C@@H]2C[C@H]2c2ccccc2)CCN(S(=O)(=O)c2ccnn2C)CC1 [Example 115, (1R,2S)—N-({4-(methoxymethyl)-1-[(1-methyl-1H-pyrazol-5-yl)sulfonyl]piperidin-4-yl}methyl)-2-phenylcyclopropanamine]",< 100
21,"COCC1(CN[C@@H]2C[C@H]2c2ccccc2)CCN(S(=O)(=O)c2ccn(C)n2)CC1 [Example 116, (1R,2S)—N-({4-(methoxymethyl)-1-[(1-methyl-1H-pyrazol-3-yl)sulfonyl]piperidin-4-yl}methyl)-2-phenylcyclopropanamine]",< 100

# Molecular target: T1, LSD-1 enzyme
# Test: biochemical
# Experimental: LSD1 Histone Demethylase Biochemical Assay
# LANCE LSD1/KDM1A demethylase assay-10 μL of 1 nM LSD-1 enzyme (ENZO BML-SE544-0050) in the assay buffer (50 mM Tris, pH 7.5, 0.01% Tween-20, 25 mM NaCl, 5 mM DTT) were preincubated for 1 hour at 25° C. with 0.8 μL compound/DMSO dotted in black 384 well polystyrene plates. […] After stopping the reactions plates were incubated for 30 minutes and read on a PHERAstar FS plate reader (BMG Labtech).
row,SMILES,IC50 [nM]
1,"COCC1(CN[C@@H]2C[C@H]2c2ccccc2)CCN(C(=O)N2CC(O)C2)CC1 [Example 111, 1-{[4-(methoxymethyl)-4-({[(1R,2S)-2-phenylcyclopropyl]amino}methyl)piperidin-1-yl]carbonyl}azetidin-3-ol]",< 100
